Structures are written as SMILES.

Test [1] has as its target Low molecular weight phosphotyrosine protein phosphatase (Homo sapiens) (UniProt P24666). The experiment in a line: Uncompetitive inhibition of human GST-tagged LMW-PTP-B expressed in Escherichia coli JM 109 cells using p-nitrophenyl phosphate as substrate after 15 mins by microplate reader analysis.
For test [2] the target is unchanged. The experiment in a line: Competitive inhibition of human GST-tagged LMW-PTP-B expressed in Escherichia coli JM 109 cells using p-nitrophenyl phosphate as substrate after 15 mins by microplate reader analysis.
For test [3] the target is unchanged. The experiment in a line: Competitive inhibition of LMW-PTP-B (unknown origin).

Chain of Low molecular weight phosphotyrosine protein phosphatase (Homo sapiens) (P24666 whole entry, looked up): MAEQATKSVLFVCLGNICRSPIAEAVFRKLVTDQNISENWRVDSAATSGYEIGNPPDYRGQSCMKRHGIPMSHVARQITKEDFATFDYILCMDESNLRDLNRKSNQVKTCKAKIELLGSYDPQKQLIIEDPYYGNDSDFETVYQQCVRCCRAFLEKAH

Regarding `O=C1c2ccccc2C(=O)c2[nH]cnc21`, in test [1], the Kii amounted to 7.97 µM.

On to `Nc1nc(N)c(/N=N/c2ccc(SCC(=O)O)cc2)c(O)n1`, for which the Kis in test [2] stood at 730 µM. For the compound `O[C@@H]1[C@H](OCc2ccccc2)OC[C@@H](O)[C@H]1O`, the Kis in test [2] was more than 450 µM.

The compound `CC[C@@]1(O)C(=O)OCc2c1cc1n(c2=O)Cc2cc3c(NC(=O)CN)cccc3nc2-1` had a Kis in test [2] of 538 µM. In test [2], `Cn1c(=O)c2nc(CNc3ccc(C(=O)O)cc3)[nH]c2n(C)c1=O` came in with a Kis of 1560 µM. On the same count and under the same terms, the value for `O=C(O)CCNC1CCCCC1` was 3300 µM; that for `Nc1nc(N)nc([C@@H]2C=CCCC2)n1` was more than 450 µM. Compound `O=c1cc(-c2ccc(O)cc2)oc2c(O)c(O)c(O)c(O)c12` had a Kis in test [2] of 18.8 µM. Compound `CCCCSc1cc(C)nc(N)n1` yielded a Kis in test [2] of more than 450 µM. In test [2], `COc1ccc2nc3cc(Cl)ccc3c(C#N)c2c1` gave a Kis of more than 450 µM. With `c1ccc(CSc2nc3c[nH]cnc-3n2)cc1`, the Kis in test [2] is more than 450 µM.

Take `O=C(/C=C/c1ccc(O)c(O)c1)OC1[C@@H](O)CC(OC(=O)/C=C/c2ccc(O)c(O)c2)(C(=O)O)C[C@@H]1O` (stereo not given in full): in test [2], the Kis was found to be 635 µM. `COc1ccc(C(=O)O)nc1C` registered a Kis in test [2] of 2780 µM.

`Cc1cc(C)c2c(SC(C)C)nc(N)nc2n1` yielded a Kis in test [2] of 925 µM. `Oc1cc(-c2nn[nH]n2)nc(O)n1` had a Kis in test [2] of more than 450 µM. As to `CC1=C[C@H](O)[C@@H](O)[C@]2(C)[C@H]3[C@@]4(O)OC[C@]35[C@H]([C@@H](C)[C@H]4O)[C@@H](O)C(=O)O[C@@H]5C[C@@H]12`, the Kis in test [2] is more than 450 µM. In the case of `O=C(O)/C=C/C(=O)N1Cc2cc3ccccc3nc2C1`, in test [2], the Kis worked out at 493 µM. Consider `O=C(O)c1ccc(N2CCCCC2)cc1O`, for which, in test [2], the Kis was more than 450 µM. In test [2], `OCC(O)C1OCOC(C(O)CO)C1O` (stereo not given) yielded a Kis of more than 450 µM.

Take `C[C@@H]1O[C@@H](Oc2c(-c3cc(O)c(O)c(O)c3)oc3cc(O)cc(O)c3c2=O)[C@H](O)[C@H](O)[C@H]1O`: in test [2], the Kis is more than 126 µM. `Nc1o[nH]c(=O)c1C1CCCCC1` had a Kis in test [2] of more than 450 µM. The same measure, in the same setting: in the case of `O=C(O)C1OCC2(CO1)COC(C(=O)O)OC2` (stereo not given) it was more than 450 µM; in that of `O=C(O)CCCC[C@@H]1SC[C@@H]2NC(=O)N[C@@H]21`, 2330 µM. In test [2], `CC(C)(C)c1ccc(OCC(=O)O)cc1` yielded a Kis of more than 450 µM.

For `Cc1cccc(N=C(S)Nc2cccc(C)n2)n1`, in test [2], the Kis was more than 450 µM. `N=C(N)n1c(N)nc2ccccc2c1=O` had a Kis in test [2] of 1180 µM. As for `Nc1nc2c[nH]c(N)nc-2n1`, the Kis in test [2] came to 31.7 µM.

In turn, `O=C(O)c1ccc2c(c1Nc1ccccc1)C(=O)c1ccccc1C2=O` yielded a Kis in test [2] of 161 µM. Same read-out and setting: in the case of `Cc1cccc(C)c1NC(=O)Nc1ccc(S(N)(=O)=O)cc1` it was 1760 µM; in that of `CC(C)c1nc2c(=O)n(C)c(=O)n(C)c2[nH]1`, more than 450 µM; in that of `O=C(O)c1nn(-c2ccccc2-c2nnc(O)nc2O)c(=O)[nH]c1=O`, 1650 µM.

For `O=c1oc2c(cc1O)oc(=O)c1cc(O)c(O)c(O)c12`, in test [2], the Kis amounted to 10.8 µM. In test [1], `Cc1c2cc(O)c(=O)cc-2oc2cc(O)c(O)cc12` registered a Kii of 31.7 µM. The compound also registered a Kis in test [2] of 13.5 µM. In test [2], `Nc1nc(SCc2ccccn2)c2ncn([C@@H]3O[C@H](CO)[C@@H](O)[C@H]3O)c2n1` had a Kis of more than 450 µM. Turning to `O=Cc1c[nH]c2ncccc12`, the Kis in test [2] stood at 7190 µM. With `Cc1ccc([N+](=O)[O-])cc1NC(=O)Nc1ccc(S(N)(=O)=O)cc1`, the Kis in test [2] worked out at 2230 µM. Turning to `Nc1nc(N)c(/N=N/c2ccc(S(N)(=O)=O)cc2)c(O)n1`, in test [2], the Kis stood at 128 µM. For the compound `Cc1ncc(COP(=O)(O)O)c(C=O)c1O`, the figures for the Kis in test [3] and in test [2] were 7.6 µM and 3.73 µM, respectively.

As for `O=c1c(O)cccc2cc(O)c(O)c(O)c12`, the Kis in test [2] came to 10.4 µM. Compound `O=C(O)Cc1ccc(/N=N/c2c(O)c(C(=O)O)cc3ccccc23)cc1` returned a Kis in test [2] of 33.5 µM.

For the compound `CCO[C@H]1CCc2c(C)nc(N)nc2S1`, in test [1], the Kii was 122 µM. In test [2], `Cn1c(=O)c2nc(COc3ccc(C(C)(C)C)cc3)[nH]c2n(C)c1=O` showed a Kis of more than 450 µM. On to `COC(=O)[C@@H]1[C@H](O)[C@H](C)[C@H](O)[C@H](C)/C=C\C=C(/C)C(=O)Nc2c(C)c(OC(C)=O)c3c(c2O)C(=O)C(C)=C2OCOC(=C23)/C(C)=C/[C@@](C)(O)[C@H](O)[C@@H](C)[C@H]1O`, for which, in test [2], the Kis came to 93.9 µM.

(Values after ChEMBL document CHEMBL2434938, “Identification of new inhibitors for low molecular weight protein tyrosine phosphatase isoform B” (Bioorg Med Chem Lett, 2013).)
